# From paper doi:10.1101/2025.05.02.651913 (bioRxiv, 2025)
# Structures can show the parent of a compound that is named as a salt.
# System: MPXV strain hMPXV/USA/MA001/2022 (Lineage B.1, Clade IIb)
# Assay type: cell-based, Mpox virus (MPXV)
row,Compound,Duplicate of Duplicate of Hits: No CPE
1,"C=CC(=O)Nc1cccc(Nc2nc(Nc3ccc(NC4CN(CCF)C4)cc3OC)ncc2C(F)(F)F)c1 [NKIL-CNX-2006, CNX-2006]",1
2,"COc1cccc(Nc2ncnn3ccc(CN4CC[C@@H](N)[C@H](O)C4)c23)c1 [MC-BMS-690514, BMS-690514]",1
3,"C=CC(=O)Nc1ccc2ncnc(Nc3cccc(Br)c3)c2c1 [NKIL-PD168393, PD168393]",1
4,"C=CC(=O)Nc1cccc(Oc2nc(Nc3ccc(N4CCN(C)CC4)cc3)ncc2Cl)c1 [NKIL-WZ3146, WZ3146]",1
5,"C#Cc1cccc(Nc2ncnc3cc(OCCOC)c(OCCO)cc23)c1.Cl [MC-Desmethyl Erlotinib, Desmethyl Erlotinib]",1
6,"CN(C)C/C=C/C(=O)Nc1cc2c(Nc3ccc(Cl)c(Br)c3)ncnc2cn1 [MC-Tarlox-TKI, Tarlox-TKI]",1
7,"C=CC(=O)Nc1cc(Nc2nccc(-c3cn(C)c4ccccc34)n2)c(OC)cc1N(C)CCN(C)C [NKIL-AZD9291, Osimertinib]",1
8,"CCN1CCN(Cc2ccc(NC(=O)c3ccc(C)c(/C=C/c4cnc5[nH]ccc5c4OC)c3)cc2C(F)(F)F)CC1 [MC-HG6-64-1, HG6-64-1]",1
9,"CCS(=O)(=O)c1cc(Nc2ncc(F)c(N(Cc3ccccc3C#N)c3cc(CO)ccc3C)n2)ccc1N1CCN(C)CC1 [MC-AZ13705339, AZ13705339]",1
10,SBI-581 [MC-SBI-581],1
11,"CNS(=O)(=O)Nc1nccc(Cc2c(C)c3ccc(Oc4ncccn4)cc3oc2=O)c1F [MC-Avutometinib, Avutometinib]",1
12,"CC(=O)Nc1cccc(-n2c(=O)n(C3CC3)c(=O)c3c(Nc4ccc(I)cc4F)n(C)c(=O)c(C)c32)c1.C[S+](C)[O-] [MC-Trametinib (DMSO solvate), Trametinib (DMSO solvate)]",1
13,"CCN(CC)CCNC(=O)c1c(C)[nH]c(/C=C2\C(=O)Nc3ccc(Cl)cc32)c1C [MC-SU11652, SU11652]",1
14,"CS[C@@]1(C(=O)Nc2ccc3[nH]nc(-c4ccc(OC(C)C)nc4)c3c2)CCN(CC(=O)N2CC=C(c3ccc(-c4ncn(C)n4)cc3)CC2)C1 [MC-MK-8353, MK-8353]",1
15,"Cc1c[nH]c2nc(Nc3ccc(N4CCN(C)CC4)c(F)c3)nc(-c3cccc(CC#N)c3)c12 [NKIL-SGI-7079, SGI-7079]",1
16,"C=CC(=O)N[C@H]1C=C(C)c2c(-c3cnc4ccccc4c3)c3c(N)ncnc3n2C1 [MC-Zipalertinib, Zipalertinib]",1
17,"C=CC(=O)Nc1cc(Nc2nccc(Nc3cc(Cl)c(F)cc3C(C)(C)O)n2)c(OC)cc1N1CC[C@@H](N(C)C)C1 [MC-Sunvozertinib, Sunvozertinib]",1
18,"Cn1c(=O)c(F)c(Nc2ccc(I)cc2F)c2c(=O)n(C[C@@H](O)CO)cnc21 [NKIL-TAK-733, TAK-733]",1
19,"O=C(Nc1ccncc1)Nc1ccc(-c2nc(N3CCOCC3)nc(N3C4CCC3COC4)n2)cc1 [MC-PKI-179 (hydrochloride), PKI-179 (hydrochloride)]",1
20,FGFR1/DDR2 inhibitor 1 [MC-FGFR1/DDR2 inhibitor 1],1
21,"O=C(N/N=C/c1c(O)ccc2ccccc12)c1cc(-c2ccc3ccccc3c2)n[nH]1 [MC-SKI-I, SKI-I]",1
22,XMU-MP-3 [MC-XMU-MP-3],1
23,Afatinib impurity 11 [MC-Afatinib impurity 11],1
24,"COc1cc(Nc2c(C#N)cnc3cc(OCCCN4CCN(C)CC4)c(OC)cc23)c(Cl)cc1Cl [LOPAC-Bosutinib, Bosutinib]",1
25,"Cc1cnc(Nc2ccc(F)cc2Cl)nc1-c1c[nH]c(C(=O)N[C@H](CO)c2cccc(Cl)c2)c1 [NKIL-VX-11e, VX-11e]",1
